The structures appear in SMILES notation. Read-outs that look alike come from different tables or passages of the source. A value given as a limit tells only on which side of the number the result lay.

Data on three compounds can be found in patent US11306123B2, “Heterotandem bicyclic peptide complex” (BicycleTx Limited, priority 2019, dated 2022).

Data set [1] can be described thus: Pharmacokinetics in SD Rats. Format: in vivo, rat. The protocol: 3. Pharmacokinetics of the Nectin-4/CD137 Heterotandem BCY11863 in SD Rats
Male SD Rats were dosed with the Nectin-4/CD137 heterotandem BCY11863 formulated in 25 mM Histidine HCl, 10% sucrose pH 7 by IV bolus, IV infusion (15 minutes) or subcutaneously. Serial bleeding (about 80 μL blood/time point) was performed via submandibular or saphenous vein at each time point. All blood samples were immediately transferred into prechilled microcentrifuge tubes containing 2 μL K2-EDTA (0.5M) as anti-coagulant and placed on wet ice. Blood samples were immediately processed for plasma by centrifugation at approximately 4° C., 3000 g. The precipitant including internal standard was immediately added into the plasma, mixed well and centrifuged at 12,000 rpm, 4° C. for 10 minutes. The supernatant was transferred into pre-labeled polypropylene microcentrifuge tubes, and then quick-frozen over dry ice. The samples were stored at […] or below as needed until analysis. 7.5 μL of the supernatant samples were directly injected for LC-MS/MS analysis using an Orbitrap Q Exactive in positive ion mode to determine the concentrations of analyte. Plasma concentration versus time data were analyzed by non-compartmental approaches using the Phoenix WinNonlin 6.3 software program. C0, CI, Vdss, T½, AUC(0-last), AUC(0-inf), MRT(0-last), MRT(0-inf) and graphs of plasma concentration versus time profile were reported.

The test system of data set [2] is 5484 full-length human plasma membrane proteins and secreted proteins expressed in HEK293 cells. Put plainly: Retrogenix cell microarray off-target screening. It is filed as binding. The note with it: 1 μM test peptide. The protocol:
Retrogenix microarray screening: Retrogenix's cell microarray technology was used to screen for specific off-target binding interactions of a biotinylated BCY11863 known as BCY13582.
Under these conditions, the test peptide was screened for binding against human HEK293 cells, individually expressing 5484 full-length human plasma membrane proteins and secreted proteins.
Each primary hit was re-expressed, along with two control receptors (TGFBR2 and EGFR), and re-tested with 1 μM BCY13582 test peptide, 1 μM BCY13582 test peptide in the presence of 100 μM BCY11863, and other positive and negative control treatments (FIG. 4). […] These were untethered and tethered forms of Nectin-4, and CD137—the primary targets.

The target in the next data set is T1, human CD137 (Homo sapiens, UniProt Q07011).
T1 construct: extracellular domain: SPR data
Put plainly: SPR, biotinylated analogue captured on chip, binding to CD137 extracellular domain. On the technique in general: SPR reads the build-up and loss of mass on a sensor chip optically.

The target of another data set is T2, cyno CD137 (Macaca fascicularis, UniProt A9YYE7).
T2 construct: extracellular domain: SPR data
Described as above.

The mark [3] stands for this setting: in vivo, SD rat plasma, analyte after 100 mg/kg IV BCY11863.
Setting [4] is: in vivo, SD rat plasma, analyte after 100 mg/kg IV BCY11863, read-out: T1/2 (converted).

T2 sequence (A9YYE7 24-186): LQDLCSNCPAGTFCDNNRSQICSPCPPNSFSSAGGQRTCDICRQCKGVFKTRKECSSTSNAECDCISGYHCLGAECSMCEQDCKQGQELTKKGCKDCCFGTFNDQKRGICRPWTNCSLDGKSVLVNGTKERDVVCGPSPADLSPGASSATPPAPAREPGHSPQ
T1 sequence (Q07011 24-186 limits assumed): as the sequence (A9YYE7 24-186) above, with L4P, S19N, K50R, I66T, S67P, Y69F, E75G, A149V counted along it

One may read the AUC as the area under the concentration-time curve, a measure of exposure. Low readings indicate less exposure, high ones more exposure. One may read the Cmax as the peak of the concentration-time curve. With `CCCC[C@@H]1NC(=O)[C@H](Cc2ccc(O)cc2)NC(=O)[C@@H]2CCCN2C(=O)[C@H](CC(=O)O)NC(=O)[C@H](C)NC(=O)[C@H](Cc2ccccc2)NC(=O)[C@@H]2CSCCC(=O)N3CN(CN(C3)C(=O)CCSC[C@@H](C(=O)N[C@@H](C)C(N)=O)NC1=O)C(=O)CCSC[C@H](NC(C)=O)C(=O)N[C@@H](CC(C)(C)C)C(=O)N1CCC[C@H]1C(=O)N[C@@H](CCC(=O)O)C(=O)N[C@H](CCCCNC(=O)CCc1cn(CCOCCOCCOCCN(CCOCCOCCOCCC(=O)N[C@H]3CSCCC(=O)N4CN5CN(C4)C(=O)CCSC[C@H](NC(=O)[C@@H](CC(=O)O)NC(=O)[C@H](Cc4cccc6ccccc46)NC(=O)[C@@H]4CCCN4C3=O)C(=O)N[C@@H](CCSC)C(=O)N[C@@H](CCCCNC(=N)N)C(=O)N[C@@H](CC(=O)O)C(=O)N[C@@H](Cc3c[nH]c4ccccc34)C(=O)N[C@@H](CO)C(=O)N[C@@H]([C@@H](C)O)C(=O)N3CCC[C@H]3C(=O)N3C[C@H](O)C[C@H]3C(=O)N[C@@H](Cc3c[nH]c4ccccc34)C(=O)N[C@H](C(N)=O)CSCCC5=O)CCOCCOCCOCCn3cc(CCC(=O)NCCCC[C@H]4NC(=O)[C@H](CCC(=O)O)NC(=O)[C@@H]5CCCN5C(=O)[C@H](CC(C)(C)C)NC(=O)[C@@H](NC(C)=O)CSCCC(=O)N5CN6CN(C5)C(=O)CCSC[C@H](NC(=O)[C@H](Cc5ccc(O)cc5)NC(=O)[C@@H]5CCCN5C4=O)C(=O)N[C@@H](Cc4ccccc4)C(=O)N[C@@H](C)C(=O)N[C@@H](CC(=O)O)C(=O)N4CCC[C@H]4C(=O)N[C@@H](Cc4ccc(O)cc4)C(=O)N[C@@H](CCCC)C(=O)N[C@H](C(=O)N[C@@H](C)C(N)=O)CSCCC6=O)nn3)nn1)C(=O)N1CCC[C@H]1C(=O)N[C@@H](Cc1ccc(O)cc1)C(=O)N2` [BCY11863], the “Conversion to BCY14602” value in data set [1] (SD rats, IV 100 mg/kg, first 24 h of the study) was “No significant conversion to BCY14602”. Also, the “Fraction metabolized to BCY15155” value in data set [1] (SD rats, IV administration, 100 mg/kg) is < 1%. In data set [1] (setting [3]), this compound came in with an AUC of 130000 ng·h/mL. This compound registered a Cmax in data set [1] (setting [3]) of 280 µg/mL. In addition, the half-life in data set [1] (setting [4]) is 5.4 h; in data set [1] (rat, in vivo, SD rats, 3.2 mg/kg IV Inf (15 min), read-out: T½ (converted)), 3.1 h; in data set [1] (rat, in vivo, SD rats, 6.3 mg/kg Sc, read-out: T½ (converted)) it was 2.5 h. The clearance in data set [1] (in vivo, SD rat, 100 mg/kg IV BCY11863, read-out: Clp) is 13 mL/min/kg.

In general, Kd refers to the constant that tells how readily two partners part at equilibrium. Lower therefore signals a tighter complex. For the compound `CCCC[C@@H]1NC(=O)[C@H](Cc2ccc(O)cc2)NC(=O)[C@@H]2CCCN2C(=O)[C@H](CC(=O)O)NC(=O)[C@H](C)NC(=O)[C@H](Cc2ccccc2)NC(=O)[C@@H]2CSCCC(=O)N3CN(CN(C3)C(=O)CCSC[C@@H](C(=O)N[C@@H](C)C(N)=O)NC1=O)C(=O)CCSC[C@H](NC(C)=O)C(=O)N[C@@H](CC(C)(C)C)C(=O)N1CCC[C@H]1C(=O)N[C@@H](CCC(=O)O)C(=O)N[C@H](CCCCNC(=O)CCc1cn(CCOCCOCCOCCN(CCOCCOCCOCCC(=O)N[C@H]3CSCCC(=O)N4CN5CN(C4)C(=O)CCSC[C@H](NC(=O)[C@@H](CC(=O)O)NC(=O)[C@H](Cc4cccc6ccccc46)NC(=O)[C@@H]4CCCN4C3=O)C(=O)N[C@@H](CCSC)C(=O)N[C@@H](CCCCNC(=N)N)C(=O)N[C@@H](CC(=O)O)C(=O)N[C@@H](Cc3c[nH]c4ccccc34)C(=O)N[C@@H](CO)C(=O)N[C@@H]([C@@H](C)O)C(=O)N3CCC[C@H]3C(=O)N3C[C@H](O)C[C@H]3C(=O)N[C@@H](Cc3c[nH]c4ccccc34)C(=O)N[C@H](C(N)=O)CSCCC5=O)CCOCCOCCOCCn3cc(CCC(=O)NCCCC[C@H]4NC(=O)[C@H](CCC(=O)O)NC(=O)[C@@H]5CCCN5C(=O)[C@H](CC(C)(C)C)NC(=O)[C@@H](NC(C)=O)CSCCC(=O)N5CN6CN(C5)C(=O)CCSC[C@H](NC(=O)[C@H](Cc5ccc(O)cc5)NC(=O)[C@@H]5CCCN5C4=O)C(=O)N[C@@H](Cc4ccccc4)C(=O)N[C@@H](C)C(=O)N[C@@H](CC(=O)O)C(=O)N4CCC[C@H]4C(=O)N[C@@H](Cc4ccc(O)cc4)C(=O)N[C@@H](CCCC)C(=O)N[C@H](C(=O)N[C@@H](CCCCNC(=O)CCOCCOCCOCCOCCOCCOCCOCCOCCOCCOCCOCCOCCNC(=O)CCCC[C@@H]4SC[C@@H]5NC(=O)N[C@@H]54)C(N)=O)CSCCC6=O)nn3)nn1)C(=O)N1CCC[C@H]1C(=O)N[C@@H](Cc1ccc(O)cc1)C(=O)N2` [BCY13582], the Specific off-target interactions result in data set [2] was “No specific off-target interactions were identified”. Moreover, the dissociation constant (Kd) at human CD137 was 8.4 ± 4.2 nM; at cyno CD137 it was 4.23 nM.

For `CCCC[C@@H]1NC(=O)[C@H](Cc2ccc(O)cc2)NC(=O)[C@@H]2CCCN2C(=O)[C@H](CC(=O)O)NC(=O)[C@H](C)NC(=O)[C@H](Cc2ccccc2)NC(=O)[C@@H]2CSCCC(=O)N3CN(CN(C3)C(=O)CCSC[C@@H](C(=O)N[C@@H](C)C(N)=O)NC1=O)C(=O)CCSC[C@H](NC(C)=O)C(=O)N[C@@H](CC(C)(C)C)C(=O)N1CCC[C@H]1C(=O)N[C@@H](CCC(=O)O)C(=O)N[C@H](CCCCNC(=O)CCc1cn(CCOCCOCCOCCN(CCOCCOCCOCCC(=O)N[C@H]3CSCCC(=O)N4CN5CN(C4)C(=O)CCSC[C@H](NC(=O)[C@@H](CC(=O)O)NC(=O)[C@H](Cc4cccc6ccccc46)NC(=O)[C@@H]4CCCN4C3=O)C(=O)N[C@@H](CCSC)C(=O)N[C@@H](CCCCNC(=N)N)C(=O)N[C@@H](CC(=O)O)C(=O)N[C@@H](Cc3c[nH]c4ccccc34)C(=O)N[C@@H](CO)C(=O)N[C@@H]([C@@H](C)O)C(=O)N3CCC[C@H]3C(=O)N3C[C@H](O)C[C@H]3C(=O)N[C@@H](Cc3c[nH]c4ccccc34)C(=O)N[C@H](C(N)=O)CSCCC5=O)CCOCCOCCOCCn3cc(CCC(=O)NCCCC[C@H]4NC(=O)[C@H](CCC(=O)O)NC(=O)[C@@H]5CCCN5C(=O)[C@H](CC(C)(C)C)NC(=O)[C@@H](N)CSCCC(=O)N5CN6CN(C5)C(=O)CCSC[C@H](NC(=O)[C@H](Cc5ccc(O)cc5)NC(=O)[C@@H]5CCCN5C4=O)C(=O)N[C@@H](Cc4ccccc4)C(=O)N[C@@H](C)C(=O)N[C@@H](CC(=O)O)C(=O)N4CCC[C@H]4C(=O)N[C@@H](Cc4ccc(O)cc4)C(=O)N[C@@H](CCCC)C(=O)N[C@H](C(=O)N[C@@H](C)C(N)=O)CSCCC6=O)nn3)nn1)C(=O)N1CCC[C@H]1C(=O)N[C@@H](Cc1ccc(O)cc1)C(=O)N2` [BCY15155], in data set [1] (setting [3]), the AUC was determined as 1300 ng·h/mL and the Cmax worked out at 2.85 µg/mL. Moreover, the half-life in data set [1] (setting [4]) is 3.1 h.
